≈ marks a conversion by molar mass, not a printed value.
Key:
Assay type in all cases: cell-based
S. aureus ATCC 13709 = assay: MIC, antibacterial potency, S. aureus; details: S. aureus (SA); in µg/mL
S. pneumoniae ATCC 51916 = assay: MIC, S. pneumoniae; details: S. pneumoniae (Spn52); in µg/mL
E. coli 8 ATCC 25922 = assay: MIC, E. coli 8 (wt); details: E. coli 8 (EC8)

MIC, SA (S. aureus ATCC 13709)	MIC Spn52 (S. pneumoniae ATCC 51916)	MIC EC8 (E. coli 8 ATCC 25922) [mg/L]	SMILES
8	8	> 64	CCc1[nH]c2nc(Oc3cnc(C(N)=O)nc3)nc(N3CC4C(N)C4C3)c2c1Cl (stereo not drawn) [701,133]
<=0.5	2	32 (≈ 68.2 µM)	CCc1[nH]c2nc(Sc3cnc4nccnc4c3)nc(N3C[C@@H]4[C@H](C3)[C@@]4(N)CO)c2c1Cl [701,144]
64	64	> 64	CCc1[nH]c2nc(Sc3cnc4nccnc4c3)nc(N(CCN)CC(C)C)c2c1Cl [701,148]
4	16	64 (≈ 158 µM)	CCc1[nH]c2nc(Sc3cnc4cccnc4c3)nc(N3CC[C@@H](N)C3)c2c1C [701,161]
>64	>64	> 64	CCc1[nH]c2nc(Oc3cncc(C(=O)OC)c3)nc(N3CC4C(N)C4C3)c2c1Cl (stereo not drawn) [701,163]
16	32	> 64	CCc1[nH]c2nc(Sc3cncc(S(=O)(=O)N(C)C)c3)nc(N3CC[C@@H](N)C3)c2c1Cl [701,180]
2	8	> 64	CCc1[nH]c2nc(Sc3cncc(S(=O)(=O)N(C)C)c3)nc(N3CC4C(N)C4C3)c2c1Cl (stereo not drawn) [701,181]
>64	>64	> 64	CCc1[nH]c2nc(Sc3cncc(S(=O)(=O)N(C)C)c3)nc(N3CC[C@@H](N)C3)c2c1C [701,182]
16	64	> 64	CCc1[nH]c2nc(Sc3cncc(S(=O)(=O)N(C)C)c3)nc(N3CC4C(N)C4C3)c2c1C (stereo not drawn) [701,183]
>64	>64	> 64	CCc1[nH]c2nc(Sc3ccc4c(N5CC[C@@H](N)C5)cc(=O)oc4c3)nc(N3CC[C@@H](N)C3)c2c1Cl [701,184]
8	32	64 (≈ 182 µM)	CCc1[nH]c2nc(Oc3cncnc3)nc(N3CC4C(N)C4C3)c2c1C (stereo not drawn) [701,193]
2	4	> 64	N[C@@H]1CCN(c2nc(Sc3cnc4cccnc4c3)nc3[nH]c(CC(F)(F)F)c(Cl)c23)C1 [701,209]
2	4	> 64	CCc1[nH]c2nc(Oc3cncc(C(N)=O)c3)nc(C)c2c1Cl [701,231]
1	4	> 64	CCc1[nH]c2nc(Oc3ccc4nccnc4c3)nc(C)c2c1Cl [701,232]
>64	>64	> 64	CCc1[nH]c2nc(N3CCN(c4cc(C(=O)OC)nc5ccc(Cl)cc45)CC3)ncc2c1Cl [701,237]
2	16	64 (≈ 143 µM)	CCc1[nH]c2nc(Sc3cnc4ncn(C)c(=O)c4c3)nc(N3CC4C(N)C4C3)c2c1C (stereo not drawn) [701,239]

MIC, SA (S. aureus ATCC 13709)	MIC Spn52 (S. pneumoniae ATCC 51916)	MIC EC8 (E. coli 8 ATCC 25922) [mg/L]	SMILES
<=0.5	<=0.5	8 (≈ 17.7 µM)	CCc1[nH]c2nc(Oc3cncnc3)nc(Oc3cc(O)cc(C#N)c3)c2c1Br [701,249]
1	2	> 64	CCc1[nH]c2nc(Oc3cncnc3)nc(Oc3cccc(CNC)c3)c2c1Cl [701,251]
<=0.5	<=0.5	> 64	CCc1[nH]c2nc(Oc3cnc4cccnc4c3)nc(Oc3cccc(C#N)c3)c2c1Br [701,252]
1	4	> 64	CCc1[nH]c2nc(Oc3cccc(C#N)c3)nc(Oc3cncnc3)c2c1Br [701,253]
<=0.5	<=0.5	> 64	CCc1[nH]c2nc(Oc3cncc(C#N)c3)nc(Oc3cnc(N)nc3)c2c1Br [701,255]
8	64	> 64	CCc1[nH]c2nc(N3CCN(c4cc(C(=O)O)nc5ccc(Cl)cc45)CC3)ncc2c1Cl [701,260]
<=0.5	1	> 64	CCc1[nH]c2nc(Sc3cnc4ccc[n+]([O-])c4c3)nc(N3CC(NS(C)(=O)=O)C3)c2c1Cl [701,263]
<=0.5	<=0.5	> 64	CCc1[nH]c2nc(Oc3cncnc3)nc(Oc3cc(O)cc(C#N)c3)c2c1Cl [701,264]
<=0.5	<=0.5	4 (≈ 8.38 µM)	CCc1[nH]c2nc(Oc3cncc(C#N)c3)nc(Oc3cc(O)cc(C#N)c3)c2c1Br [701,268]
<=0.5	4	32 (≈ 68.2 µM)	CCc1[nH]c2nc(Sc3cnc4c(c3)c(=O)ncn4C)nc(N3CC4C(N)C4C3)c2c1Cl (stereo not drawn) [701,270]
>64	>64	> 64	CCc1[nH]c2nc(Oc3ccc4nccnc4c3)nc(Oc3ccc(C#N)cc3Cl)c2c1Cl [701,286]
>64	>64	> 64	CCc1[nH]c2nc(Oc3ccc4nccnc4c3)nc(Oc3ccc(C#N)cc3Cl)c2c1Br [701,287]
32	16	64 (≈ 171 µM)	CCc1[nH]c2nc(Oc3cnc(C)nc3)nc(OC3CCNC3)c2c1Cl (stereo not drawn) [701,291]
32	>32	> 32	CCc1[nH]c2nc(Sc3cnc4c(c3)c(=O)ncn4C)nc(N3CC4C(N)C4C3)c2c1C (stereo not drawn) [701,292]
8	32	> 64	CCc1[nH]c2nc(Oc3cncnc3)nc(Oc3ccc4ncnc(N5CC(N)C5)c4c3)c2c1Cl [701,296]

More lines, now with the values behind:

SMILES	MIC, SA (S. aureus ATCC 13709)	MIC Spn52 (S. pneumoniae ATCC 51916)	MIC EC8 (E. coli 8 ATCC 25922) [mg/L]
CCc1[nH]c2nc(Sc3cnc4nccnc4c3)nc(N3CC4CNC(C4)C3)c2c1Cl (stereo not drawn) [701,137]	2	4	64 (≈ 141 µM)
CCc1[nH]c2nc(Oc3cccnc3)nc(N3CC4C(N)C4C3)c2c1Cl (stereo not drawn) [701,140]	4	8	> 64
CCc1[nH]c2nc(Sc3cnc4cccnc4c3)nc(N3CC4C(N)C4C3)c2c1C (stereo not drawn) [701,143]	<=0.5	2	64 (≈ 153 µM)
CCc1[nH]c2nc(Sc3cnc4nccnc4c3)nc(N(CCN)CC(C)c3ccccc3)c2c1Cl (stereo not drawn) [701,147]	32	64	> 64
CCc1[nH]c2nc(Oc3cnc(C)nc3)nc(N3CC4C(N)C4C3)c2c1Cl (stereo not drawn) [701,151]	<=0.5	2	8 (≈ 20.7 µM)
CCc1[nH]c2nc(Sc3cccnc3)nc(Cl)c2c1C(F)F [701,153]	64	>64	> 64
CCc1[nH]c2nc(Sc3cccnc3)nc(N3C[C@@H]4[C@@H](N)[C@@H]4C3)c2c1C(F)F [701,162]	16	32	> 32
CCc1[nH]c2nc(Sc3ccc4cc5c([n+]([O-])c4c3)CCN(C(=O)CCCC[C@@H]3SC[C@@H]4NC(=O)N[C@@H]43)C5)nc(N3CC4C(C3)C4(N)C(N)=O)c2c1Cl (stereo partly drawn) [701,229]	4	32	> 64
CCc1[nH]c2nc(Oc3cncnc3)nc(Oc3ccc4nccnc4c3)c2c1C [701,233]	1.	8	> 64
NC1C2CN(c3nc(Sc4cnc5ccc[n+]([O-])c5c4)nc4[nH]c(CC(F)(F)F)c(Cl)c34)CC12 (stereo not drawn) [701,236]	>64	>64	> 64
CCc1[nH]c2nc(Oc3ccc4nccnc4c3)ncc2c1Cl [701,238]	4	32	> 64
Cc1nc(Sc2cncc(C(N)=O)c2)nc2[nH]c(C(C)O)c(Cl)c12 (stereo not drawn) [701,240]	>64	>64	> 64
CCc1[nH]c2nc(Oc3cncnc3)nc(Oc3cnc(N)nc3)c2c1Cl [701,241]	1	2	> 64
CCc1[nH]c2nc(Oc3cncnc3)nc(Oc3cc(N)cc(C#N)c3)c2c1Br [701,250]	<=0.5	<=0.5	> 64
CCc1[nH]c2nc(Oc3cnc(C)nc3)nc(Oc3cnc(C)nc3)c2c1Br [701,254]	<=0.5	<=0.5	> 64
CCc1[nH]c2nc(Oc3cncc(C#N)c3)ncc2c1Cl [701,261]	4	16	> 64
CCc1[nH]c2nc(Oc3cncc(C(N)=O)c3)ncc2c1Cl [701,265]	4	16	> 64
CCc1[nH]c2nc(Oc3ccc[n+]([O-])c3)nc(Oc3cccc(C#N)c3)c2c1Br [701,267]	<=0.5	<=0.5	32 (≈ 70.8 µM)
CCc1[nH]c2nc(Sc3cnc4ccc[n+]([O-])c4c3)nc(N3C[C@@H]4[C@@H](CN)[C@@H]4C3)c2c1Cl [701,269]	<=0.5	<=0.5	8 (≈ 17.1 µM)
CCc1[nH]c2nc(Oc3cncnc3)nc(Oc3cc(Cl)cc(N4CC(N)C4)c3)c2c1Br [701,273]	<=0.5	<=0.5	16 (≈ 31 µM)
CCc1[nH]c2nc(Oc3cncc(C(N)=O)c3)nc(N3CC4C(N)C4C3)c2c1Cl (stereo not drawn) [701,278]	>64	>64	> 64
CCc1[nH]c2nc(Oc3cnc(C)nc3)nc(Oc3cc(C#N)ccc3F)c2c1Br [701,288]	<=0.5	1	> 64
CCc1[nH]c2nc(Oc3ccc4nccnc4c3)nc(OC3CCN(C(=O)OC(C)(C)C)CC3)c2c1Cl [701,289]	16	>64	> 64
CCc1[nH]c2nc(Oc3ccc4nccnc4c3)nc(OC3CCNCC3)c2c1Cl [701,290]	>64	64	> 64

Source: patent US10047105B2, “Gyrase inhibitors” (Merck Sharp & Dohme Corp., priority 2009, dated 2018)
